Assay results from EP3524067B1, “SPRAY-DRIED MIXTURE OF HUMAN MILK OLIGOSACCHARIDES” (Chr. Hansen HMO GmbH, priority 2018, dated 2019).

Legend:
[1] = Differential scanning calorimetry (DSC) of spray-dried human milk oligosaccharides; assay type: physicochemical; settings: spray-dried powder; for Tg, 1st heating scan / Tg, 2nd heating scan: glass transition temperature; for Tg, 1st heating scan: midpoint of endothermic shift, reheated to 100 °C at 10 K/min; for Tg, 2nd heating scan: second heating cycle, reheated to 150 °C; for endothermal event, normalized energy / endothermal event, peak temperature: DSC heating scan (first heating scan where stated)
Source text: Using differential scanning calorimetry (DSC) on a Mettler Toledo 821e (Mettler Toledo, Giessen, Germany) thermal events of spray-dried human milk oligosaccharides, namely 3-fucosyllactose, 6'-sialyllactose, 3'-sialyllactose, lacto-N-tetraose, and spray-dried mixtures of human milk oligosaccharides, a mixture (HMO-Mix I) of 2'-fucosyllactose/lacto-N-tetraose, and a mixture (HMO Mix II) of 2'-fucosyllactose, 3-fucosyllactose, lacto-N-tetraose, 6'-sialyllactose, 3'-sialyllactose, respectively, were determined.
A Mettler Toledo 821e (Mettler Toledo, Giessen, Germany) was used to determine thermal events of the spray-dried products (glass transition temperature (Tg), further exo- and endothermic events).
Approximately 25 mg of the spray-dried human milk oligosaccharides were analyzed in crimped Al-crucibles (Mettler Toledo, Giessen, Germany). The samples were cooled to 0 °C with 10 K/min and reheated to 100 °C with a scanning rate of 10 K/min. After cooling down the samples to 0 °C in a second heating cycle, the samples were reheated to 150 °C. The midpoint of the endothermic shift of the baseline during the heating scan was taken as glass transition temperature (Tg). Exothermic and endothermic peaks are reported by means of the peak temperature and the normalized energy of the event.

[2] = Powder particle size by laser diffraction; assay type: physicochemical; set-up: Size, Mean: unit not given here; settings: dispersed in isooctane; mean ± standard deviation of 3 measurements
Procedure: The powder particle size was assessed by laser diffraction. The system detects scattered and diffracted light by an array of concentrically arranged sensor elements. The software-algorithm is then approximating the particle counts by calculating the z-values of the light intensity values, which arrive at the different sensor elements. The analysis was executed using a SALD-7500 Aggregate Sizer (Shimadzu Corporation, Kyoto, Japan) quantitative laser diffraction system (qLD).
A small amount (spatula tip) of each sample was dispersed in 2 ml isooctane and homogenized by ultrasonication for five minutes. The dispersion was transferred into a batch cell filled with isooctane and analyzed in manual mode.
Data acquisition settings were as follows: Signal Averaging Count per Measurement: 128, Signal Accumulation Count: 3, and Interval: 2 seconds.
Prior to measurement, the system was blanked with isooctane. Each sample dispersion was measured 3 times and the mean values and the standard deviation are reported. Data was evaluated using software WING SALD II version V3.1. Since the refractive index of the sample was unknown, the refractive index of sugar (disaccharide) particles (1.530) was used for determination of size distribution profiles. Size values for mean and median diameter are reported.

Tg, 1st heating scan [1] | Tg, 2nd heating scan [1] | endothermal events ([1]; result in words) | Size, Median [2] [µm] | endothermal event, normalized energy [1] [J/g] | endothermal event, peak temperature [1] | endothermal relaxation peak after Tg ([1]; first heating scan, result in words) | Tg, 2nd heating scan ([1]; listed as lacto-N-tetraose) | Size, Mean [2] | Structure (SMILES)
48,8 °C | 54,3 °C | No endothermal events were detected | 122 ± 16.7 |  |  |  |  |  | CC(=O)N[C@H]1[C@H]([C@H](O)[C@H](O)CO)O[C@@](O[C@H]2[C@@H](O)[C@@H](CO)O[C@@H](O[C@H]3[C@H](O)[C@@H](O)C(O)O[C@@H]3CO)[C@@H]2O)(C(=O)O)C[C@@H]1O (some centres unmarked) [3'-sialyllactose]
47,6 °C | 49,6 °C |  | 141 | -0.22 | 77 °C | detected |  |  | CC(=O)N[C@H]1[C@H]([C@H](O)[C@H](O)CO)O[C@@](OC[C@H]2O[C@@H](O[C@H]3[C@H](O)[C@@H](O)[C@H](O)O[C@@H]3CO)[C@H](O)[C@@H](O)[C@H]2O)(C(=O)O)C[C@@H]1O [6'-sialyllactose]
49,9 °C | 79,4 °C |  | 141 | -6.04 | about 89 °C |  | about 79 °C | 117.3 ± 0.7 | CC(=O)N[C@H]1[C@H](O[C@H]2[C@@H](O)[C@@H](CO)O[C@@H](O[C@H]3[C@H](O)[C@@H](O)C(O)O[C@@H]3CO)[C@@H]2O)O[C@H](CO)[C@@H](O)[C@@H]1O[C@@H]1O[C@H](CO)[C@H](O)[C@H](O)[C@H]1O (some centres unmarked) [Lacto-N-tetraose, lacto-N-tetraose]
